According to US6274715A, “Tricyclic erythromycin derivatives” (priority 1997, dated 2001):
In brackets after ≈: the same amount, converted by molar mass.

Tests used:
Assay type in all cases: cell-based
[1] = test system: STAPHYLOCOCCUS AUREUS 1775; assay: In vitro antibacterial activity, MIC, BHI agar dilution; details: S. aureus 1775, unit assumed
[2] = test system: ESCHERICHIA COLI KNK 437; details: E. coli KNK 437; BHI agar; unit assumed
[3] = test system: PROVIDENCIA STUARTII CMX 640; details: P. stuartii CMX 640; BHI agar; unit assumed
[4] = test system: KLEBSIELLA PNEUMONIAE ATCC 8045; assay: In vitro antibacterial activity, MIC, BHI agar dilution; details: K. pneumoniae ATCC 8045, unit assumed
[5] = test system: ESCHERICHIA COLI DC-2; assay: as above; details: E. coli DC-2, unit assumed
[6] = test system: PSEUDOMONAS AERUGINOSA BMH10; assay: as above; details: P. aeruginosa BMH10, unit assumed
[7] = test system: STAPHYLOCOCCUS AUREUS CMX 553; assay: as above; details: S. aureus CMX 553, unit assumed
[8] = test system: STREPTOCOCCUS BOVIS A-5169; assay: as above; details: S. bovis A-5169, unit assumed
[9] = test system: PSEUDOMONAS AERUGINOSA 5007; assay: as above; details: P. aeruginosa 5007, unit assumed
[10] = test system: CANDIDA ALBICANS CCH 442; assay: as above; details: C. albicans CCH 442, unit assumed
[11] = test system: PSEUDOMONAS AERUGINOSA K799/61; assay: as above; details: P. aeruginosa K799/61, unit assumed
[12] = test system: ESCHERICHIA COLI JUHL; details: E. coli JUHL; BHI agar; unit assumed
[13] = test system: PSEUDOMONAS AERUGINOSA DPHD-5263; assay: In vitro antibacterial activity, MIC, BHI agar dilution; details: P. aeruginosa DPHD-5263, unit assumed
[14] = test system: STREPTOCOCCUS PYOGENES EES61; assay: as above; details: S. pyogenes EES61, unit assumed
[15] = test system: STREPTOCOCCUS PYOGENES PIU 2548; assay: as above; details: S. pyogenes PIU 2548, unit assumed
[16] = test system: PSEUDOMONAS AERUGINOSA K799/WT; assay: as above; details: P. aeruginosa K799/WT, unit assumed
[17] = test system: ESCHERICHIA COLI SS; assay: as above; details: E. coli SS, unit assumed
[18] = test system: STAPHYLOCOCCUS AUREUS A-5278; assay: as above; details: S. aureus A-5278, unit assumed
[19] = test system: STREPTOCOCCUS PYOGENES 930; assay: as above; details: S. pyogenes 930, unit assumed
[20] = test system: STAPHYLOCOCCUS AUREUS NCTC10649M; assay: as above; details: S. aureus NCTC10649M, unit assumed
[21] = test system: ESCHERICHIA COLI H560; assay: as above; details: E. coli H560, unit assumed
[22] = test system: STAPHYLOCOCCUS AUREUS CMX 642A; assay: as above; details: S. aureus CMX 642A, unit assumed
[23] = test system: PSEUDOMONAS CEPACIA 296I; assay: as above; details: P. cepacia 296I, unit assumed
[24] = test system: STAPHYLOCOCCUS AUREUS ATCC 6538P; assay: as above; details: S. aureus ATCC 6538P, 35-37° C., 20 to 24 hours, unit assumed
[25] = test system: EN[…] ATCC 8043; assay: as above; details: E. faecium ATCC 8043, unit assumed
In short: (§1)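 Agar dilution in BHI: plates inoculated with 1:100 dilutions of organisms (1:10 for Micrococcus and Streptococcus), incubated 20-24 h at 35-37° C, then inspected for the lowest inhibitory concentration against a drug-free growth control.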

[26] = test system: STR[…] 508; assay: as above; details: S. agalactiae CMX 508, unit assumed
In short: as §1

[27] = test system: M[…] ATCC 4698; assay: as above; details: M. luteus ATCC 4698, unit assumed
In short: as §1

[28] = test system: M[…] ATCC 9341; assay: as above; details: M. luteus ATCC 9341, unit assumed
In short: as §1

[29] = test system: STAPHYLOCOCCUS EPIDERMIDIS 3519; details: S. epidermidis 3519; BHI agar; unit assumed
[30] = test system: ENTEROBACTER AEROGENES ATCC 13048; assay: In vitro antibacterial activity, MIC, BHI agar dilution; details: E. aerogenes ATCC 13048, unit assumed
[31] = test system: PSEUDOMONAS AERUGINOSA DPHD-2862; assay: as above; details: P. aeruginosa DPHD-2862, unit assumed
[32] = test system: MYCOBACTERIUM SMEGMATIS ATCC 114; assay: as above; details: M. smegmatis ATCC 114, unit assumed
[33] = test system: STAPHYLOCOCCUS AUREUS A5177; assay: as above; details: S. aureus A5177, unit assumed

| SMILES | MIC [1] [µg/mL] | MIC [2] [µg/mL] | MIC [3] [µg/mL] | MIC [4] [µg/mL] | MIC [5] [µg/mL] | MIC [6] [µg/mL] | MIC [7] [µg/mL] | MIC [8] [µg/mL] | MIC [9] [µg/mL] | MIC [10] [µg/mL] | MIC [11] [µg/mL] | MIC [12] [µg/mL] | MIC [13] [µg/mL] | MIC [14] [µg/mL] | MIC [15] [µg/mL] | MIC [16] [µg/mL] | MIC [17] [µg/mL] | MIC [18] [µg/mL] | MIC [19] [µg/mL] | MIC [20] [µg/mL] | also measured |
| --- | --- | --- | --- | --- | --- | --- | --- | --- | --- | --- | --- | --- | --- | --- | --- | --- | --- | --- | --- | --- | --- |
| CC[C@H]1OC(=O)[C@H](C)C(=O)[C@H](C)[C@@H](O[C@@H]2O[C@H](C)C[C@H](N(C)C)[C@H]2O)[C@](C)(OC)C[C@@H](C)C2=NC[C@H](Cc3ccc(I)cc3)N3C(=O)O[C@@]1(C)[C@H]3[C@H]2C [Example 70] | 100 (≈ 117 µM) | > 100 | > 100 | 100 (≈ 117 µM) | 50 (≈ 58.6 µM) | 100 (≈ 117 µM) | 0.2 (≈ 0.234 µM) | 0.01 (≈ 0.0117 µM) | 100 (≈ 117 µM) | 100 (≈ 117 µM) | 0.78 (≈ 0.914 µM) | 100 (≈ 117 µM) | 100 (≈ 117 µM) | 0.02 (≈ 0.0234 µM) | 0.39 (≈ 0.457 µM) | > 100 | 1.56 (≈ 1.83 µM) | 100 (≈ 117 µM) | 50 (≈ 58.6 µM) | 0.2 (≈ 0.234 µM) | MIC [21]: 50 µg/mL (≈ 58.6 µM); MIC [22]: 0.2 µg/mL (≈ 0.234 µM); MIC [23]: 50 µg/mL (≈ 58.6 µM); MIC [24]: 0.1 µg/mL (≈ 0.117 µM); MIC [25]: 0.1 µg/mL (≈ 0.117 µM); MIC [26]: 0.05 µg/mL (≈ 0.0586 µM); MIC [27]: 0.2 µg/mL (≈ 0.234 µM); MIC [28]: 0.1 µg/mL (≈ 0.117 µM); MIC [29]: 0.2 µg/mL (≈ 0.234 µM); MIC [30]: 100 µg/mL (≈ 117 µM); MIC [31]: 100 µg/mL (≈ 117 µM); MIC [32]: 0.2 µg/mL (≈ 0.234 µM); MIC [33]: 0.1 µg/mL (≈ 0.117 µM) |
| CCC1OC(=O)C(C)C(=O)C(C)C(OC2OC(C)CC(N(C)C)C2O)C(C)(OC)CC(C)C2=NCC(COCc3ccccc3F)N3C(=O)OC1(C)C3C2C (stereo not drawn) [Example 73] | > 100 | 50 (≈ 64.4 µM) | > 100 | 100 (≈ 129 µM) | 25 (≈ 32.2 µM) | 100 (≈ 129 µM) | 0.1 (≈ 0.129 µM) | 0.01 (≈ 0.0129 µM) | > 100 | > 100 | 0.39 (≈ 0.503 µM) | 50 (≈ 64.4 µM) | 100 (≈ 129 µM) | ≤ 0.005 | 0.39 (≈ 0.503 µM) | > 100 | 0.2 (≈ 0.258 µM) | > 100 | 100 (≈ 129 µM) | 0.1 (≈ 0.129 µM) | MIC [21]: 12.5 µg/mL (≈ 16.1 µM); MIC [22]: 0.1 µg/mL (≈ 0.129 µM); MIC [23]: 25 µg/mL (≈ 32.2 µM); MIC [24]: 0.1 µg/mL (≈ 0.129 µM); MIC [25]: 0.05 µg/mL (≈ 0.0644 µM); MIC [26]: ≤ 0.005 µg/mL; MIC [27]: 0.1 µg/mL (≈ 0.129 µM); MIC [28]: 0.01 µg/mL (≈ 0.0129 µM); MIC [29]: 0.1 µg/mL (≈ 0.129 µM); MIC [30]: 100 µg/mL (≈ 129 µM); MIC [31]: 100 µg/mL (≈ 129 µM); MIC [32]: 0.39 µg/mL (≈ 0.503 µM); MIC [33]: 0.1 µg/mL (≈ 0.129 µM) |
| CCC1OC(=O)C(C)C(=O)C(C)C(OC2OC(C)CC(N(C)C)C2O)C(C)(OC)CC(C)C2=NC(COCc3ccc(N(C)C)cc3)CN3C(=O)OC1(C)C3C2C (stereo not drawn) [Example 76] | > 100 | > 100 | > 100 | > 100 | > 100 | > 100 | 0.39 (≈ 0.487 µM) | 0.01 (≈ 0.0125 µM) | > 100 | > 100 | 1.56 (≈ 1.95 µM) | > 100 | > 100 | 0.1 (≈ 0.125 µM) | 0.39 (≈ 0.487 µM) | > 100 | 0.39 (≈ 0.487 µM) | > 100 | > 100 | 0.2 (≈ 0.25 µM) | MIC [21]: 50 µg/mL (≈ 62.4 µM); MIC [22]: 0.39 µg/mL (≈ 0.487 µM); MIC [23]: > 100 µg/mL; MIC [24]: 0.39 µg/mL (≈ 0.487 µM); MIC [25]: 0.1 µg/mL (≈ 0.125 µM); MIC [26]: 0.1 µg/mL (≈ 0.125 µM); MIC [27]: 0.39 µg/mL (≈ 0.487 µM); MIC [28]: 0.2 µg/mL (≈ 0.25 µM); MIC [29]: 0.39 µg/mL (≈ 0.487 µM); MIC [30]: > 100 µg/mL; MIC [31]: > 100 µg/mL; MIC [32]: 6.2 µg/mL (≈ 7.74 µM); MIC [33]: 0.39 µg/mL (≈ 0.487 µM) |
